Each structure is given as a SMILES string.

In data set [1] the test system is 786-0. As to the kind of experiment: Cytotoxicity against human 786-0 cells assessed as cell growth at 10^-6 M after 48 hrs by SRB assay. The format is functional. The conditions noted are these: 786-0, 48 h, read-out: Activity.
The nature of data set [2]: Cytotoxicity against human LOXIMVI cells assessed as cell growth at 10^-8 M after 48 hrs by SRB assay. The format is functional. The conditions noted are these: LOX IMVI, read-out: Activity. In general terms: The SRB assay estimates cell density from bound dye.
Data set [3] deals with A498. As to the kind of experiment: Cytotoxicity against human A498 cells assessed as cell growth at 10^-5 M after 48 hrs by SRB assay. The conditions noted are these: A498, 48 h, read-out: Activity. Format: functional.
In data set [4] the test system is SR. As to the kind of experiment: Cytotoxicity against human SR cells assessed as cell growth at 10^-4 M after 48 hrs by SRB assay. Format: functional. The conditions noted are these: read-out: Activity.
The nature of data set [5]: Cytotoxicity against human RPMI8226 cells assessed as cell growth at 10^-8 M after 48 hrs by SRB assay. The format is functional. The conditions noted are these: RPMI-8226, 48 h, read-out: Activity.
The next data set relates to K562. As to the kind of experiment: Cytotoxicity against human K562 cells assessed as cell growth at 10^-5 M after 48 hrs by SRB assay. The conditions noted are these: K562, 48 h, read-out: Activity. The format is functional.
The nature of data set [6]: Cytotoxicity against human HCT116 cells assessed as cell growth at 10^-7 M after 48 hrs by SRB assay. The format is functional. The conditions noted are these: HCT-116, 48 h, read-out: Activity.
Data set [7] in a line: Cytotoxicity against human SNB19 cells assessed as cell growth at 10^-8 M after 48 hrs by SRB assay. The format is functional. The conditions noted are these: SNB-19, 48 h, read-out: Activity.
Data set [8] in a line: Cytotoxicity against human LOXIMVI cells assessed as cell growth at 10^-5 M after 48 hrs by SRB assay. The format is functional. The conditions noted are these: LOX IMVI, read-out: Activity.
The nature of data set [9]: Cytotoxicity against human PC3 cells assessed as cell growth at 10^-4 M after 48 hrs by SRB assay. The conditions noted are these: PC-3, 48 h, read-out: Activity. The format is functional.
Data set [10] can be described thus: Cytotoxicity against human RPMI8226 cells assessed as cell growth at 10^-6 M after 48 hrs by SRB assay. The format is functional. The conditions noted are these: RPMI-8226, 48 h, read-out: Activity.
Data set [11] concerns NCI-H226. As to the kind of experiment: Cytotoxicity against human NCI-H226 cells assessed as cell growth at 10^-4 M after 48 hrs by SRB assay. The conditions noted are these: NCI-H226, 48 h, read-out: Activity. The format is functional.
Data set [12] in a line: Cytotoxicity against human HOP62 cells assessed as cell growth at 10^-7 M after 48 hrs by SRB assay. The format is functional. The conditions noted are these: HOP-62, 48 h, read-out: Activity.
For data set [13], the system named is NCI-H226. In words: Cytotoxicity against human NCI-H226 cells assessed as cell growth at 10^-8 M after 48 hrs by SRB assay. Format: functional. The conditions noted are these: NCI-H226, 48 h, read-out: Activity.
Data set [14] is described as follows: Cytotoxicity against human Caki1 cells assessed as cell growth at 10^-8 M after 48 hrs by SRB assay. The conditions noted are these: CAKI-1, 48 h, read-out: Activity. Format: functional.
The nature of data set [15]: Cytotoxicity against human HCT116 cells assessed as cell growth at 10^-5 M after 48 hrs by SRB assay. The format is functional. The conditions noted are these: HCT-116, 48 h, read-out: Activity.
Data set [16] is described as follows: Cytotoxicity against human OVCAR5 cells assessed as cell growth at 10^-4 M after 48 hrs by SRB assay. Format: functional. The conditions noted are these: OVCAR-5, 48 h, read-out: Activity.
For a further data set, the system named is U-251. As to the kind of experiment: Cytotoxicity against human U251 cells assessed as cell growth at 10^-6 M after 48 hrs by SRB assay. The conditions noted are these: U-251, 48 h, read-out: Activity. The format is functional.
The nature of data set [17]: Cytotoxicity against human HOP62 cells assessed as cell growth at 10^-5 M after 48 hrs by SRB assay. The format is functional. The conditions noted are these: HOP-62, 48 h, read-out: Activity.
Data set [18] is described as follows: Cytotoxicity against human DU145 cells assessed as cell growth at 10^-7 M after 48 hrs by SRB assay. Format: functional. The conditions noted are these: DU-145, 48 h, read-out: Activity.
A short description of data set [19]: Cytotoxicity against human SNB75 cells assessed as cell growth at 10^-4 M after 48 hrs by SRB assay. The format is functional. The conditions noted are these: SNB-75, 48 h, read-out: Activity.
Data set [20] has as its system 786-0. In words: Cytotoxicity against human 786-0 cells assessed as cell growth at 10^-5 M after 48 hrs by SRB assay. The format is functional. The conditions noted are these: 786-0, 48 h, read-out: Activity.
Data set [21] can be described thus: Cytotoxicity against human SW620 cells assessed as cell growth at 10^-6 M after 48 hrs by SRB assay. The format is functional. The conditions noted are these: SW-620, 48 h, read-out: Activity.
The nature of data set [22]: Cytotoxicity against human SF295 cells assessed as cell growth at 10^-5 M after 48 hrs by SRB assay. Format: functional. The conditions noted are these: SF-295, 48 h, read-out: Activity.
A short description of data set [23]: Cytotoxicity against human OVCAR8 cells assessed as cell growth at 5 nM after 48 hrs by SRB assay. The format is functional. The conditions noted are these: OVCAR-8, 48 h, read-out: Activity.
In another data set the test system is HT-29. In words: Cytotoxicity against human HT-29 cells assessed as cell growth at 5 nM after 48 hrs by SRB assay. Format: functional. The conditions noted are these: HT-29, 48 h, read-out: Activity.
Data set [24] is described as follows: Cytotoxicity against human UO31 cells assessed as cell growth at 5 uM after 48 hrs by SRB assay. Format: functional. The conditions noted are these: UO-31, 48 h, read-out: Activity.
In the next data set the test system is Malme-3M. In words: Cytotoxicity against human MALME-3M cells assessed as cell growth at 5 uM after 48 hrs by SRB assay. Format: functional. The conditions noted are these: read-out: Activity.
Another data set concerns SK-MEL-2. In words: Cytotoxicity against human SK-MEL-2 cells assessed as cell growth at 50 nM after 48 hrs by SRB assay. The format is functional. The conditions noted are these: SK-MEL-2, 48 h, read-out: Activity.
The nature of data set [25]: Metabolic stability in human liver microsomes assessed as remaining parent compound level at 10 uM measured immediately after compound addition in absence of NAPDH by LC/MS analysis. The format is ADME. The conditions noted are these: read-out: Drug metabolism.
Data set [26] is described as follows: Cytotoxicity against human RPMI8226 cells assessed as cell growth at 5 nM after 48 hrs by SRB assay. The format is functional. The conditions noted are these: RPMI-8226, 48 h, read-out: Activity.
In a further data set the test system is MDA-MB-468. In words: Cytotoxicity against human MDA-MB-468 cells assessed as cell growth at 5 nM after 48 hrs by SRB assay. Format: functional. The conditions noted are these: MDA-MB-468, 48 h, read-out: Activity.
The test system of a further data set is NCI-H23. In words: Cytotoxicity against human NCI-H23 cells assessed as cell growth at 5 nM after 48 hrs by SRB assay. Format: functional. The conditions noted are these: NCI-H23, 48 h, read-out: Activity.
Data set [27] can be described thus: Cytotoxicity against human HCC2998 cells assessed as cell growth at 5 uM after 48 hrs by SRB assay. Format: functional. The conditions noted are these: HCC 2998, 48 h, read-out: Activity.
Data set [28] deals with 786-0. In words: Cytotoxicity against human 786-0 cells assessed as cell growth at 5 uM after 48 hrs by SRB assay. Format: functional. The conditions noted are these: 786-0, 48 h, read-out: Activity.
Data set [29] concerns SR. In words: Cytotoxicity against human SR cells assessed as cell growth at 50 nM after 48 hrs by SRB assay. The format is functional. The conditions noted are these: read-out: Activity.
A short description of data set [30]: Cytotoxicity against human SF539 cells assessed as cell growth at 50 nM after 48 hrs by SRB assay. The format is functional. The conditions noted are these: SF-539, 48 h, read-out: Activity.
The subject of another data set is T47D. In words: Cytotoxicity against human T47D cells assessed as cell growth at 0.5 uM after 48 hrs by SRB assay. Format: functional. The conditions noted are these: read-out: Activity.
Data set [31] relates to A498. As to the kind of experiment: Cytotoxicity against human A498 cells assessed as cell growth at 50 uM after 48 hrs by SRB assay. Format: functional. The conditions noted are these: A498, 48 h, read-out: Activity.
Data set [32] in a line: Cytotoxicity against human RXF393 cells assessed as cell growth at 50 uM after 48 hrs by SRB assay. Format: functional. The conditions noted are these: RXF 393, 48 h, read-out: Activity.
The nature of data set [33]: Cytotoxicity against human BT549 cells assessed as cell growth at 5 nM after 48 hrs by SRB assay. Format: functional. The conditions noted are these: BT-549, 48 h, read-out: Activity.

Regarding `C/C(=C(/c1ccc(O)cc1)c1ccc(OCCN2CCCC2)cc1)c1ccccc1`, the growth at 1 µM in the data set on 786-0 [1] was found to be 89%; in data set [10], 92%; in the data set with U-251 it was 95%; in data set [21], 101%. Also, the growth at 0.01 µM in data set [2] came out at 98%; in [5], 103%; in [7], 104%; with NCI-H226 [13], 91%; in [14], 87%. In addition, the growth at 10 µM in the data set on A498 [3] is -5%; with K562, -38%; in data set [8], -86%; in data set [15], 1%; in data set [17] it was -51%; in the data set with 786-0 [20], -57%. Also, in data set [22], the growth at 10 µM was -57%. For the same compound, the growth at 100 µM was -66% in the data set with SR [4]; -96% in [9]; -62% with NCI-H226 [11]; -85% in data set [16]; -94% in data set [19]. Moreover, the growth at 0.1 µM in data set [6] was found to be 101%; in [12], 95%; in [18], 96%.

As for `CCCCCCCCCC(=O)Oc1ccc(/C(=C(/C)c2ccccc2)c2ccc(OCCN3CCCC3)cc2)cc1`, the growth at 0.005 µM came to 102% in [23]; 101% with HT-29; 99% in data set [26]; 96% in the data set with MDA-MB-468; 92% in the data set with NCI-H23; 100% in [33]. Further, the growth at 5 µM is 70% in data set [24], 81% in the data set with Malme-3M, 90% in [27] and 93% in the data set on 786-0 [28]. Further, the growth at 0.05 µM in the data set on SK-MEL-2 came out at 101%; with SR [29], 87%; in data set [30] it was 98%. The remaining at 0 h, 10 µM in [25] stood at 82%. Further, in the data set on T47D, the growth at 0.5 µM was found to be 46%. Moreover, the growth at 50 µM with A498 [31] is -84%; in [32] it was -89%.

Source of the values: ChEMBL document CHEMBL3774317, “Design and synthesis of novel tamoxifen analogues that avoid CYP2D6 metabolism” (Eur J Med Chem, 2016).
